Assay results taken from patent US20010046987A1, “Oxazolidinones having a sulfoximine functionality” (priority 1999, published 2001).
≈ marks a conversion by molar mass, not a printed value.

How the values were obtained:
Staphylococcus aureus = test: MIC by agar dilution, SAUR 9213; type: cell-based; settings: for MIC: Staphylococcus aureus, strain SAUR 9213, read-out: Antibacterial Activity Minimum Inhibitory Concentration SAUR 9213; for Antibacterial Activity Minimum Inhibitory Concentration SAUR 9213: strain SAUR 9213
Source text: (§1) The in vitro activity of compounds of this invention can be assessed by standard testing procedures such as the determination of minimum inhibitory concentration (MIC) by agar dilution as described in “Approved Standard.

H. influenzae = test: MIC by agar dilution, HINF 30063; type: cell-based; settings: for MIC: Haemophilus influenzae, strain HINF 30063, read-out: Antibacterial Activity Minimum Inhibitory Concentration HINF 30063; for Antibacterial Activity Minimum Inhibitory Concentration HINF 30063: strain HINF 30063
Source text: as §1

Moraxella catarrhalis = test: MIC by agar dilution, MCAT 30607; type: cell-based; settings: for MIC: Moraxella catarrhalis, strain MCAT 30607, read-out: Antibacterial Activity Minimum Inhibitory Concentration MCAT 30607; for Antibacterial Activity Minimum Inhibitory Concentration MCAT 30607: strain MCAT 30607
Source text: as §1

[1] = system: Staphylococcus epidermidis; test: MIC by agar dilution, SEPI 30593; type: cell-based; settings: for MIC: Staphylococcus epidermidis, strain SEPI 30593, read-out: Antibacterial Activity Minimum Inhibitory Concentration SEPI 30593; for Antibacterial Activity Minimum Inhibitory Concentration SEPI 30593: strain SEPI 30593
Source text: as §1

Streptococcus pneumoniae = test: MIC by agar dilution, SPNE 9912; type: cell-based; settings: for MIC: Streptococcus pneumoniae, strain SPNE 9912, read-out: Antibacterial Activity Minimum Inhibitory Concentration SPNE 9912; for Antibacterial Activity Minimum Inhibitory Concentration SPNE 9912: strain SPNE 9912
Source text: as §1

Streptococcus pyogenes = test: MIC by agar dilution, SPYO 152; type: cell-based; settings: for MIC: Streptococcus pyogenes, strain SPYO 152, read-out: Antibacterial Activity Minimum Inhibitory Concentration SPYO 152; for Antibacterial Activity Minimum Inhibitory Concentration SPYO 152: strain SPYO 152
Source text: as §1

Enterococcus faecium = test: MIC by agar dilution, EFAE 12712; type: cell-based; settings: for MIC: Enterococcus faecium, strain EFAE 12712, read-out: Antibacterial Activity Minimum Inhibitory Concentration EFAE 12712; for Antibacterial Activity Minimum Inhibitory Concentration EFAE 12712: strain EFAE 12712
Source text: as §1

Enterococcus faecalis = test: MIC by agar dilution, EFAE 9217; type: cell-based; settings: for MIC: Enterococcus faecalis, strain EFAE 9217, read-out: Antibacterial Activity Minimum Inhibitory Concentration EFAE 9217; for Antibacterial Activity Minimum Inhibitory Concentration EFAE 9217: strain EFAE 9217
Source text: as §1

Row | MIC (Staphylococcus aureus) | MIC (H. influenzae) | MIC (Moraxella catarrhalis) | MIC [1] | melting point | MIC (Streptococcus pneumoniae) | MIC (Streptococcus pyogenes) | MIC (Enterococcus faecium) | MIC (Enterococcus faecalis) | Compound | Antibacterial Activity Minimum Inhibitory Concentration SAUR 9213 (Staphylococcus aureus) | Antibacterial Activity Minimum Inhibitory Concentration HINF 30063 (H. influenzae) | Antibacterial Activity Minimum Inhibitory Concentration MCAT 30607 (Moraxella catarrhalis) | Antibacterial Activity Minimum Inhibitory Concentration SEPI 30593 [1] | Antibacterial Activity Minimum Inhibitory Concentration SPNE 9912 (Streptococcus pneumoniae) | Antibacterial Activity Minimum Inhibitory Concentration SPYO 152 (Streptococcus pyogenes) | Antibacterial Activity Minimum Inhibitory Concentration EFAE 12712 (Enterococcus faecium) | Antibacterial Activity Minimum Inhibitory Concentration EFAE 9217 (Enterococcus faecalis)
1 | 2 mg/L (≈ 4.25 µM) | 4 mg/L (≈ 8.5 µM) | 4 mg/L (≈ 8.5 µM) | 2 mg/L (≈ 4.25 µM) | 221 to 222 °C | 0.25 mg/L (≈ 0.531 µM) | 0.5 mg/L (≈ 1.06 µM) | 1 mg/L (≈ 2.12 µM) | 0.5 mg/L (≈ 1.06 µM) | CCC(=S)NC[C@H]1CN(c2ccc([C@H]3CC[S@+2]([O-])([N-]CC(N)=O)CC3)c(F)c2)C(=O)O1 [Example 23, N-({(5S)-3-[3-Fluoro-4-[1-[[(aminocarbonyl)methyl]imino]-1-oxidohexahydro-1λ^4-thiopyran-4-yl]phenyl]-2-oxo-1,3-oxazolidin-5-yl}methyl)propanethioamide, Z-isomer] | – | – | – | – | – | – | – | –
2 | 1 mg/L (≈ 2.34 µM) | 4 mg/L (≈ 9.38 µM) | 1 mg/L (≈ 2.34 µM) | 0.25 mg/L (≈ 0.586 µM) | 209 to 210 °C (dec.) | 0.25 mg/L (≈ 0.586 µM) | 0.25 mg/L (≈ 0.586 µM) | 0.5 mg/L (≈ 1.17 µM) | 1 mg/L (≈ 2.34 µM) | N=S1(=O)CCN(c2ccc(N3C[C@H](CNC(=S)C4CC4)OC3=O)cc2F)CC1 [Example 3, N-({(5S)-3-[3-Fluoro-4-(1-imino-1-oxido-1λ^4,4-thiazinan-4-yl)phenyl]-2-oxo-1,3-oxazolidin-5-yl}methyl)cyclopropanecarbothioamide] | – | – | – | – | – | – | – | –
3 | 2 mg/L (≈ 4.53 µM) | 8 mg/L (≈ 18.1 µM) | 2 mg/L (≈ 4.53 µM) | 1 mg/L (≈ 2.26 µM) | 200 to 201 °C | 0.5 mg/L (≈ 1.13 µM) | 0.5 mg/L (≈ 1.13 µM) | 1 mg/L (≈ 2.26 µM) | 1 mg/L (≈ 2.26 µM) | CC[N-][S@+2]1([O-])CC[C@@H](c2ccc(N3C[C@H](CNC(=S)CC)OC3=O)cc2F)CC1 [Example 15, N-({(5S)-3-[3-Fluoro-4-[1-(ethylimino)-1-oxidohexahydro-1λ^4-thiopyran-4-yl]phenyl]-2-oxo-1,3-oxazolidin-5-yl}methyl)propanethioamide, Z-isomer] | – | – | – | – | – | – | – | –
4 | 1 mg/L (≈ 2.41 µM) | 2 mg/L (≈ 4.82 µM) | 2 mg/L (≈ 4.82 µM) | 0.25 mg/L (≈ 0.603 µM) | 189 to 190 °C | 0.25 mg/L (≈ 0.603 µM) | 0.25 mg/L (≈ 0.603 µM) | 0.5 mg/L (≈ 1.21 µM) | 0.5 mg/L (≈ 1.21 µM) | CCC(=S)NC[C@H]1CN(c2ccc(N3CCS(=N)(=O)CC3)c(F)c2)C(=O)O1 [Example 2, N-({(5S)-3-[3-Fluoro-4-(1-imino-1-oxido-1λ^4,4-thiazinan-4-yl)phenyl]-2-oxo-1,3-oxazolidin-5-yl}methyl)propanethioamide] | – | – | – | – | – | – | – | –
5 | 2 mg/L (≈ 3.76 µM) | > 64 mg/L | 2 mg/L (≈ 3.76 µM) | 2 mg/L (≈ 3.76 µM) | 165.5 to 167 °C | 0.5 mg/L (≈ 0.94 µM) | 1 mg/L (≈ 1.88 µM) | 2 mg/L (≈ 3.76 µM) | 1 mg/L (≈ 1.88 µM) | CCC(=S)NCC1CN(c2ccc(C3CC[S+2]([O-])([N-]CCCc4ccccc4)CC3)c(F)c2)C(=O)O1 [Example 17, N-({(5S)-3-[3-Fluoro-4-[1-[(3-phenylpropyl)imino]-1-oxidohexahydro-1λ^4-thiopyran-4-yl]phenyl]-2-oxo-1,3-oxazolidin-5-yl}methyl)propanethioamide, Z-isomer] | – | – | – | – | – | – | – | –
6 | – | – | – | – | – | – | – | – | – | CC(=O)NC[C@H]1CN(c2ccc(N3CCS(=N)(=O)CC3)c(F)c2)C(=O)O1 [PREP 1, N-({(5S)-3-[3-Fluoro-4-(1-imino-1-oxido-1λ^4,4-thiazinan-4-yl)phenyl]-2-oxo-1,3-oxazolidin-5-yl}methyl)acetamide] | 16 µg/mL | 16 µg/mL | 8 µg/mL | 4 µg/mL | 1 µg/mL | 2 µg/mL | 4 µg/mL | 8 µg/mL
7 | – | – | – | – | – | – | – | – | – | COC(=O)N=S1(=O)CCN(c2ccc(N3C[C@H](CNC(=S)C4CC4)OC3=O)cc2F)CC1 [Example 28, N-[((5S)-3-{3-Fluoro-4-(1-[(methoxycarbonyl)imino]-1-oxido-1λ^4,4-thiazinan-4-yl)phenyl}-2-oxo-1,3-oxazolidin-5-yl)methyl]cyclopropanecarbothioamide] | 2 µg/mL | 4 µg/mL | 2 µg/mL | 0.5 µg/mL | 0.25 µg/mL | 0.5 µg/mL | 1 µg/mL | 1 µg/mL
8 | – | – | – | – | – | – | – | – | – | CC(=S)NC[C@H]1CN(c2ccc(N3CCS(=N)(=O)CC3)c(F)c2)C(=O)O1 [Example 1, N-({(5S)-3-[3-Fluoro-4-(1-imino-1-oxido-1λ^4,4-thiazinan-4-yl)phenyl]-2-oxo-1,3-oxazolidin-5-yl}methyl)ethanethioamide] | 1 µg/mL | 4 µg/mL | 2 µg/mL | 0.5 µg/mL | 0.25 µg/mL | 0.25 µg/mL | 1 µg/mL | 1 µg/mL

Row | Compound | MIC (Staphylococcus aureus) | MIC (H. influenzae) | MIC (Moraxella catarrhalis) | MIC [1] | melting point | MIC (Streptococcus pneumoniae) | MIC (Streptococcus pyogenes) | MIC (Enterococcus faecium) | MIC (Enterococcus faecalis) | Antibacterial Activity Minimum Inhibitory Concentration SAUR 9213 (Staphylococcus aureus) | Antibacterial Activity Minimum Inhibitory Concentration HINF 30063 (H. influenzae) | Antibacterial Activity Minimum Inhibitory Concentration MCAT 30607 (Moraxella catarrhalis) | Antibacterial Activity Minimum Inhibitory Concentration SEPI 30593 [1] | Antibacterial Activity Minimum Inhibitory Concentration SPNE 9912 (Streptococcus pneumoniae) | Antibacterial Activity Minimum Inhibitory Concentration SPYO 152 (Streptococcus pyogenes) | Antibacterial Activity Minimum Inhibitory Concentration EFAE 12712 (Enterococcus faecium) | Antibacterial Activity Minimum Inhibitory Concentration EFAE 9217 (Enterococcus faecalis)
9 | CCC(=S)NCC1CN(c2ccc(C3CC[S+2]([O-])([N-]C(=O)NC)CC3)c(F)c2)C(=O)O1 [Example 18, N-({(5S)-3-[3-Fluoro-4-(1-{[(methylamino)carbonyl]imino}-1-oxidohexahydro-1λ^4-thiopyran-4-yl)phenyl]-2-oxo-1,3-oxazolidin-5-yl}methyl)propanethioamide, Z-isomer] | 2 mg/L (≈ 4.25 µM) | 8 mg/L (≈ 17 µM) | 4 mg/L (≈ 8.5 µM) | 1 mg/L (≈ 2.12 µM) | 203 to 204 °C | 0.25 mg/L (≈ 0.531 µM) | 0.5 mg/L (≈ 1.06 µM) | 1 mg/L (≈ 2.12 µM) | 1 mg/L (≈ 2.12 µM) | – | – | – | – | – | – | – | –
10 | CCC(=S)NCC1CN(c2ccc(C3CC[S+2]([O-])([N-]C(=O)OC)CC3)c(F)c2)C(=O)O1 [Example 19, N-({(5S)-3-[3-Fluoro-4-(1-[(methoxycarbonyl)imino]-1-oxidohexahydro-1λ^4-thiopyran-4-yl)phenyl]-2-oxo-1,3-oxazolidin-5-yl}methyl)propanethioamide, Z-isomer] | 1 mg/L (≈ 2.12 µM) | 2 mg/L (≈ 4.24 µM) | 2 mg/L (≈ 4.24 µM) | 0.5 mg/L (≈ 1.06 µM) | 217 to 218 °C | 0.25 mg/L (≈ 0.53 µM) | 0.25 mg/L (≈ 0.53 µM) | 1 mg/L (≈ 2.12 µM) | – | – | – | – | – | – | – | – | –
11 | CCC(=S)NC[C@H]1CN(c2ccc([C@H]3CC[S@+2]([O-])([N-]C(N)=O)CC3)c(F)c2)C(=O)O1 [Example 22, N-({(5S)-3-[3-Fluoro-4-[1-[(aminocarbonyl)imino]-1-oxidohexahydro-1λ^4-thiopyran-4-yl]phenyl]-2-oxo-1,3-oxazolidin-5-yl}methyl)propanethioamide, Z-isomer] | 2 mg/L (≈ 4.38 µM) | 4 mg/L (≈ 8.76 µM) | 2 mg/L (≈ 4.38 µM) | 0.05 mg/L (≈ 0.11 µM) | 236 to 238 °C (dec.) | 0.125 mg/L (≈ 0.274 µM) | 0.5 mg/L (≈ 1.1 µM) | 0.5 mg/L (≈ 1.1 µM) | 0.5 mg/L (≈ 1.1 µM) | – | – | – | – | – | – | – | –
